For 64 compounds, IC50 results are on record in patent US20060264460A1 (Wyeth, priority 2005, published 2006).

Where only a bound is given, the exact number is not on record here.

For this test, the target named is T1, human Cot/Tpl2 kinase (Homo sapiens, UniProt P41279).
T1 construct: human Cot/Tpl2 kinase construct encoding residues 30-398; 6His (N); made in house; host or cells: Sf9 insect cells, baculovirus system (BD Biosciences)
T1 sequence (P41279 30-398): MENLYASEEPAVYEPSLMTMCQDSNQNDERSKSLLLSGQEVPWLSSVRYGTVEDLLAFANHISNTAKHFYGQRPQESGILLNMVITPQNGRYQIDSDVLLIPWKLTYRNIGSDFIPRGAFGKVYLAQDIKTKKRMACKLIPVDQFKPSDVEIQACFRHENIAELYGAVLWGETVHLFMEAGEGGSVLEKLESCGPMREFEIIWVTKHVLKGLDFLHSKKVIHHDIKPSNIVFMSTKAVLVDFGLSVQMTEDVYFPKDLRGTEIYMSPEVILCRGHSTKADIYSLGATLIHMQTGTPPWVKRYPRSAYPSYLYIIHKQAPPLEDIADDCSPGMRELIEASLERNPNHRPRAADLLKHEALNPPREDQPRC
Kind of test: Tpl2/Cot kinase assay: GST-MEK1 phosphorylation detected by ELISA (DELFIA Eu). Type of test: biochemical. The note with it: Table 2; Tpl2/Cot kinase, GST-MEK1 substrate, 50 uM ATP. The method in brief:
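His-tagged human Tpl2 from Sf9 cells, Ni-affinity and size-exclusion purified (monomer). 0.4 nM Tpl2 with 35 nM GST-MEK1, 50 uM ATP, MOPS pH 7.2, 1% DMSO, 1 h at 30° C; EDTA stop. MEK1 Ser217/221 phosphorylation detected by anti-phospho-MEK1 and Eu-labelled secondary ELISA; IC50 fitted.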
Turning to `CS(=O)(=O)N1CCC(n2cc(CNc3cc(Br)c4ncc(C#N)c(Nc5ccc(F)c(Cl)c5)c4c3)nn2)CC1` [Example 525], half-maximal inhibition (IC50) was put at 1.1 nM.
`N#Cc1cnc2c(Br)cc(NCc3cnc4ccccn34)cc2c1Nc1ccc(F)c(Cl)c1` [Example 526]: half-maximal inhibition (IC50) was put at 280 nM.
Compound `Fc1ccc(Nc2ncncc2-c2ccc(NCc3cnc[nH]3)cc2)cc1Cl` [Example 527] displayed an IC50 of over 3000 nM.
`N#Cc1cnc2c(Br)cc(NCc3cnc4cnccn34)cc2c1Nc1ccc(F)c(Cl)c1` [Example 528]: inhibition was half-maximal at 110 nM (IC50).
The compound `CS(=O)(=O)CCn1cnc(CNc2cc(Br)c3ncc(C#N)c(Nc4ccc(F)c(Cl)c4)c3c2)c1` [Example 529] had an IC50 of 43 nM. This IC50 lies about 2.6-fold lower than the previous one.
In the case of `CSCn1cc(CNc2cc(Br)c3ncc(C#N)c(Nc4ccc(F)c(Cl)c4)c3c2)nn1` [Example 530], the IC50 was found to be 12 nM.
`CS(=O)(=O)Cn1cc(CNc2cc(Br)c3ncc(C#N)c(Nc4ccc(F)c(Cl)c4)c3c2)nn1` [Example 531] yielded a concentration for half-maximal inhibition (IC50) of 33 nM.
The figure for `C[S+]([O-])Cn1cc(CNc2cc(Br)c3ncc(C#N)c(Nc4ccc(F)c(Cl)c4)c3c2)nn1` (stereo not shown) [Example 532] is 120 nM.
Compound `N#Cc1cnc2c(Br)cc(NCc3cn(Cc4cccnc4)cn3)cc2c1Nc1ccc(F)c(Cl)c1` [Example 533] came in with an IC50 of 3.1 nM.
In turn, `N#Cc1cncc(-c2ccccc2NCc2cnc[nH]2)c1Nc1ccc(F)c(Cl)c1` [Example 534] displayed an IC50 of over 3000 nM.
With `Fc1ccc(Nc2ncncc2-c2cccc(NCc3cnc[nH]3)c2)cc1Cl` [Example 535], the IC50 was over 3000 nM.
Take `Fc1ccc(Nc2ncncc2-c2ccccc2NCc2cnc[nH]2)cc1Cl` [Example 536]: the IC50 was over 3000 nM.
Consider `N#Cc1cnc2c(Br)cc(NCc3cc(C4CCNCC4)n[nH]3)cc2c1Nc1ccc(F)c(Cl)c1` [Example 537], for which the IC50 turned out to be 800 nM.
In turn, `N#Cc1cnc2c(Br)cc(NCc3cn(CCCN4CCCCC4)nn3)cc2c1Nc1ccc(F)c(Cl)c1` [Example 538] gave an IC50 of 3.4 nM. This IC50 lies about 240-fold lower than the previous one.
Compound `N#Cc1cnc2c(Cl)cc(NCc3cn(CCCN4CCCCC4)nn3)cc2c1Nc1ccc(F)c(Cl)c1` [Example 539] showed an IC50 of 1.1 nM.
The value for `CC(C)(C)OC(=O)N1CCCC(Cn2cc(CNc3cc(Br)c4ncc(C#N)c(Nc5ccc(F)c(Cl)c5)c4c3)nn2)C1` (stereo not shown) [Example 540] was 120 nM; that for `CC(C)(C)OC(=O)N1CCCC(Cn2cc(CNc3cc(Cl)c4ncc(C#N)c(Nc5ccc(F)c(Cl)c5)c4c3)nn2)C1` (stereo not shown) [Example 541] was 250 nM.
For `CC(C)(C)CN1CCC(n2cc(CNc3cc(Br)c4ncc(C#N)c(Nc5ccc(F)c(Cl)c5)c4c3)nn2)CC1` [Example 542], inhibition was half-maximal at 190 nM (IC50).
`CC(C)(C)OC(=O)N1CCCC1Cn1cc(CNc2cc(Cl)c3ncc(C#N)c(Nc4ccc(F)c(Cl)c4)c3c2)nn1` (stereo not shown) [Example 543] returned an IC50 of 320 nM. This IC50 lies about 1.7-fold higher than the previous one.
As for `N#Cc1cnc2c(Br)cc(NCc3cn(CC4CCCNC4)nn3)cc2c1Nc1ccc(F)c(Cl)c1` (stereo not shown) [Example 545], the IC50 was 33 nM.
Consider `N#Cc1cnc2c(Cl)cc(NCc3cn(CC4CCCNC4)nn3)cc2c1Nc1ccc(F)c(Cl)c1` (stereo not shown) [Example 546], for which inhibition was half-maximal at 48 nM (IC50). The IC50 values of the last two compounds are within 1.5-fold of each other.
As to `CC(=O)N1CCC(n2cc(CNc3cc(Br)c4ncc(C#N)c(Nc5ccc(F)c(Cl)c5)c4c3)nn2)CC1` [Example 547], the IC50 stood at 6.1 nM.
The figure for `CN1CCCC1CCn1cnc(CNc2cc(Br)c3ncc(C#N)c(Nc4ccc(F)c(Cl)c4)c3c2)c1` (stereo not shown) [Example 548] is 34 nM; for `N#Cc1cnc2c(Br)cc(NCc3cn(CC4CCCN4)nn3)cc2c1Nc1ccc(F)c(Cl)c1` (stereo not shown) [Example 550] it is 9.2 nM; for `C=CCn1cnc(CNc2cc(Br)c3ncc(C#N)c(Nc4ccc(F)c(Cl)c4)c3c2)c1` [Example 551] it is 4.8 nM.
Compound `N#Cc1cnc2c(Cl)cc(NCc3cn(Cc4cccnc4)cn3)cc2c1Nc1ccc(F)c(Cl)c1` [Example 553] yielded an IC50 of 0.7 nM.
The figure for `N#Cc1cnc2c(Br)cc(NCc3cn(-c4ccncc4)cn3)cc2c1Nc1ccc(F)c(Cl)c1` [Example 554] is 23 nM; for `N#Cc1cnc2c(Br)cc(NCc3cc([C@@H]4CCCN4)n[nH]3)cc2c1Nc1ccc(F)c(Cl)c1` [Example 555] it is 330 nM; for `N#Cc1cnc2c(Br)cc(NCc3cn(CCc4ccccn4)nn3)cc2c1Nc1ccc(F)c(Cl)c1` [Example 558] it is 3.4 nM.
The value for `N#Cc1cnc2c(Br)cc(NCc3cn(-c4ccncc4)nn3)cc2c1Nc1ccc(F)c(Cl)c1` [Example 559] was 5.5 nM; that for `C=CCn1cc(CNc2cc(Br)c3ncc(C#N)c(Nc4ccc(F)c(Cl)c4)c3c2)nn1` [Example 561] was 20 nM; that for `COCCn1cc(CNc2cc(Cl)c3ncc(C#N)c(Nc4ccc(F)c(Cl)c4)c3c2)nn1` [Example 562] was 20 nM.
The value for `N#Cc1cnc2c(Cl)cc(NCc3cn(CCc4ccccn4)nn3)cc2c1Nc1ccc(F)c(Cl)c1` [Example 563] was 25 nM.
On to `COCCOCCn1cc(CNc2cc(Cl)c3ncc(C#N)c(Nc4ccc(F)c(Cl)c4)c3c2)nn1` [Example 564], for which it took 21 nM to reach half-maximal inhibition (IC50).
`COCCOCCn1cc(CNc2cc(Br)c3ncc(C#N)c(Nc4ccc(F)c(Cl)c4)c3c2)nn1` [Example 565] had an IC50 of 100 nM. Against the preceding compound, the IC50 is about 4.8-fold higher.
As to `CCN1CCC(Cn2cc(CNc3cc(Br)c4ncc(C#N)c(Nc5ccc(F)c(Cl)c5)c4c3)nn2)CC1` [Example 566], the concentration for half-maximal inhibition (IC50) came to 40 nM.
Turning to `CC(C)N1CCC(Cn2cc(CNc3cc(Br)c4ncc(C#N)c(Nc5ccc(F)c(Cl)c5)c4c3)nn2)CC1` [Example 567], the IC50 was found to be 29 nM.
`CCN1CCC(CCn2cc(CNc3cc(Br)c4ncc(C#N)c(Nc5ccc(F)c(Cl)c5)c4c3)nn2)CC1` [Example 568] returned an IC50 of 64 nM. Compared with the last compound, the IC50 is about 2.2-fold higher.
Compound `CC(C)N1CCC(CCn2cc(CNc3cc(Br)c4ncc(C#N)c(Nc5ccc(F)c(Cl)c5)c4c3)nn2)CC1` [Example 569] yielded an IC50 of 57 nM.
`N#Cc1cnc2c(Cl)cc(NCc3cn(C4CCOCC4)nn3)cc2c1Nc1ccc(F)c(Cl)c1` [Example 570] gave an IC50 of 14 nM.
`CN(C)CCc1nc[nH]c1CNc1cc(Br)c2ncc(C#N)c(Nc3ccc(F)c(Cl)c3)c2c1` [Example 571] registered an IC50 of 240 nM.
On to `N#Cc1cnc2c(Cl)cc(NCc3cn(CCOCCOCCO)nn3)cc2c1Nc1ccc(F)c(Cl)c1` [Example 572], for which the midpoint of inhibition, the IC50, lay at 91 nM.
The figure for `N#Cc1cnc2c(Br)cc(NCc3cn(CCOCCOCCO)nn3)cc2c1Nc1ccc(F)c(Cl)c1` [Example 573] is 140 nM.
Compound `CN(C)CC(c1ccccc1)n1cc(CNc2cc(Cl)c3ncc(C#N)c(Nc4ccc(F)c(Cl)c4)c3c2)nn1` (stereo not shown) [Example 574] registered an IC50 of 70 nM.
The value for `CN(C)CC(c1ccccc1)n1cc(CNc2cc(Br)c3ncc(C#N)c(Nc4ccc(F)c(Cl)c4)c3c2)nn1` (stereo not shown) [Example 575] was 93 nM; that for `N#Cc1cnc2c(Cl)cc(NCc3cn(-c4cc[n+]([O-])cc4)nn3)cc2c1Nc1ccc(F)c(Cl)c1` [Example 576] was 16 nM; that for `N#Cc1cnc2c(Br)cc(NCc3cn(-c4cc[n+]([O-])cc4)nn3)cc2c1Nc1ccc(F)c(Cl)c1` [Example 577] was 15 nM.
`N#Cc1cnc2c(Cl)cc(NCc3cn(-c4ccnc(N5CCCCC5)n4)nn3)cc2c1Nc1ccc(F)c(Cl)c1` [Example 578] displayed a half-maximal inhibitory concentration (IC50) of 320 nM.
Turning to `N#Cc1cnc2c(Br)cc(NCc3cn(Cc4ccccn4)nn3)cc2c1Nc1ccc(F)c(Cl)c1` [Example 579], the half-inhibitory concentration (IC50) was found to be 33 nM.
In the case of `N#Cc1cnc2c(Cl)cc(NCc3cn(CCCO)nn3)cc2c1Nc1ccc(F)c(Cl)c1` [Example 581], half-maximal inhibition (IC50) was put at 3.6 nM.
In the case of `CN(C)C(=O)OCCCn1cc(CNc2cc(Cl)c3ncc(C#N)c(Nc4ccc(F)c(Cl)c4)c3c2)nn1` [Example 582], inhibition was half-maximal at 16 nM (IC50).
`N#Cc1cnc2c(Cl)cc(NCc3cn(Cc4ccc(C(F)(F)F)cc4)nn3)cc2c1Nc1ccc(F)c(Cl)c1` [Example 583] had an IC50 of over 3000 nM.
The figure for `CN(C)C(=O)OCCCn1cc(CNc2cc(Br)c3ncc(C#N)c(Nc4ccc(F)c(Cl)c4)c3c2)nn1` [Example 584] is 3.5 nM; for `N#Cc1cnc2c(Cl)cc(NCc3cn(CC4CCCCC4)nn3)cc2c1Nc1ccc(F)c(Cl)c1` [Example 585] it is 790 nM.
As for `CC(c1ccccc1)n1cc(CNc2cc(Cl)c3ncc(C#N)c(Nc4ccc(F)c(Cl)c4)c3c2)nn1` (stereo not shown) [Example 586], half-maximal inhibition (IC50) required 96 nM. Against the preceding compound, the IC50 is about 8.2-fold lower.
`CN(C)CCC(c1cccnc1)n1cc(CNc2cc(Br)c3ncc(C#N)c(Nc4ccc(F)c(Cl)c4)c3c2)nn1` (stereo not shown) [Example 587]: the IC50 was found to be 6.7 nM. Against the preceding compound, the IC50 is about 14-fold lower.
As to `CN(C)CCC(c1cccnc1)n1cc(CNc2cc(Cl)c3ncc(C#N)c(Nc4ccc(F)c(Cl)c4)c3c2)nn1` (stereo not shown) [Example 588], the IC50 was determined as 36 nM. Compared with the last compound, the IC50 is about 5.4-fold higher.
Turning to `CC(C)(C)OC(=O)N1CCCN(CCCn2cc(CNc3cc(Br)c4ncc(C#N)c(Nc5ccc(F)c(Cl)c5)c4c3)nn2)CC1` [Example 589], the IC50 turned out to be 520 nM.
Compound `CC(C)(C)OC(=O)N1CCCN(CCCn2cc(CNc3cc(Cl)c4ncc(C#N)c(Nc5ccc(F)c(Cl)c5)c4c3)nn2)CC1` [Example 590] returned an IC50 of 120 nM.
In turn, `CC(C)(C)OC(=O)N1CCN(CCCn2cc(CNc3cc(Br)c4ncc(C#N)c(Nc5ccc(F)c(Cl)c5)c4c3)nn2)CC1` [Example 591] registered an IC50 of 1300 nM. This IC50 is about 11-fold higher than that of the compound before.
In turn, `CC(C)(C)OC(=O)N1CCN(CCCn2cc(CNc3cc(Cl)c4ncc(C#N)c(Nc5ccc(F)c(Cl)c5)c4c3)nn2)CC1` [Example 592] registered an IC50 of 230 nM.
In turn, `N#Cc1cnc2c(Br)cc(NCc3cn(CCCN4CCCNCC4)nn3)cc2c1Nc1ccc(F)c(Cl)c1` [Example 594] yielded an IC50 of 43 nM.
The value for `N#Cc1cnc2c(Cl)cc(NCc3cn(CCCN4CCCNCC4)nn3)cc2c1Nc1ccc(F)c(Cl)c1` [Example 595] was 74 nM.
For `N#Cc1cnc2c(Br)cc(NCc3cn(CCCN4CCNCC4)nn3)cc2c1Nc1ccc(F)c(Cl)c1` [Example 596], the 50% inhibitory concentration (IC50) turned out to be 110 nM.
